In article PMC7181280, “Synthesis, Structure and In Vitro Anti-Trypanosomal Activity of Non-Toxic Arylpyrrole-Based Chalcone Derivatives” (Molecules, 2020):
Like-named read-outs stand apart in the source and are kept apart here.

Columns and labels:
[1] = In vitro cytotoxicity assay, HeLa cells (resazurin cell viability); type: cell-based; conditions: human
Experimental: (§1) A single concentration (20 µM) cytotoxicity evaluation of all compounds was conducted in duplicates using a human cervix adenocarcinoma (HeLa) cell line, with emetine (EMT) included as a reference drug and cell viability relative to untreated cells assessed using resazurin. […] The anti-trypanosomal activity of prepared compounds against nagana T. b. brucei (the subspecies responsible for African trypanosomiasis in cattle) parasite cultures were determined using the T. b. brucei 427 strain. Pentamidine (PMD), which is an existing drug for the treatment of trypanosomiasis, was included as a positive control drug. The trypanocidal activity of each compound was initially assessed at a fixed concentration of 20 μM, using resazurin as a read-out of cell viability after compound exposure. […] From Table 1, the structural modification was initially performed on the arylpyrrole moiety (ring B) of the chalcones, while keeping the ring A unchanged. […] Introduction of the fluorine, highly electronegative atom, at the para-position (10b) appeared to enhance the activity against T. b. brucei; however, the activity diminished when the fluorine was replaced by chlorine (10c).
HeLa cells (Cellonex, Johannesburg, South Africa) seeded in 96-well plates were incubated with 20 µM test compounds and cell viability assessed with resazurin, as previously described. Fluorescence readings (excitation 560 nm, emission 590 nm) obtained for the individual wells were converted to % cell viability relative to the average readings obtained from untreated control wells. Plots of % cell viability vs. log[compound] were used to determine IC50 values by non-linear regression using GraphPad Prism (v. 5.02).

[2] = test system: Trypanosoma brucei brucei 427 trypomastigotes; assay: In vitro antitrypanosomal assay (resazurin parasite viability); type: cell-based; conditions: T. b. brucei 427 strain; for IC50: Trypanosoma brucei
Experimental: as §1
Trypanosoma brucei brucei 427 trypomastigotes were cultured in Iscove’s Modified Dulbecco’s medium (IMDM, Lonza, Basel Switzerland) and supplemented with 10% fetal calf serum, HMI-9 supplement, hypoxanthine and penicillin/streptomycin at 37 °C in a 5% CO2 incubator. Serial dilutions of test compounds were incubated with the parasites in 96-well plates for 24 h, and residual parasite viability in the wells determined by adding 20 µL resazurin toxicology reagent (Sigma-Aldrich) and incubating for an additional 24 h. Reduction of resazurin to resorufin by viable parasites was assessed by fluorescence readings (excitation 560 nm, emission 590 nm) in a Spectramax M3 plate reader (Molecular Devices, San Jose, CA, USA). Fluorescence readings were converted to % parasite viability relative to the average readings obtained from untreated control wells. IC50 values were determined by plotting % viability vs. log[compound] and performing non-linear regression using GraphPad Prism (v. 5.02) software.

[3] = 48 h, 24 h compound incubation + 24 h resazurin, na = not active (cell viability ≥50% in preliminary single point assay at 20 μM), read-out: T. b. brucei IC50
[4] = 24 h compound incubation + 24 h resazurin, na = not active (cell viability ≥50% in preliminary single point assay at 20 μM)

IC50 [2, 3] | Structure (SMILES) | viability at 20 µM [1] | further results
 | Cc1cc(/C=C/C(=O)c2ccc([N+](=O)[O-])cc2)c(C)n1-c1ccc([N+](=O)[O-])cc1 [Compound 17, (E)-3-(2,5-Dimethyl-1-(4-nitrophenyl)-1H-pyrrol-3-yl)-1-(4-nitrophenyl)prop-2-en-1-one] |  | viability at 20 µM ([1]; single concentration 20 µM, duplicates, relative to untreated cells, read-out: HeLa %Viability (residual percentage viability)): > 100%; melting point: 175 to 178 °C
9.1 µM | COc1ccc2nc(Cl)c(/C=C/C(=O)c3cc(Br)ccc3O)cc2c1 [Compound 11b] | 99.3% | 
 | CC[C@H]1CN2CCc3cc(OC)c(OC)cc3[C@@H]2C[C@@H]1C[C@H]1NCCc2cc(OC)c(OC)cc21 [EMT, emetine, reference compound] |  | IC50 ([1]; HeLa cells, resazurin, read-out: HeLa cytotoxicity of reference drug (printed in the %Viability column with unit μM)): 0.76 µM
12.3 µM | COc1ccc(C(=O)/C=C/c2cc(C)n(-c3ccc([N+](=O)[O-])cc3)c2C)cc1 [Compound 15, (E)-3-(2,5-Dimethyl-1-(4-nitrophenyl)-1H-pyrrol-3-yl)-1-(4-methoxyphenyl)prop-2-en-1-one] | 98.9% | melting point: 157 to 158 °C
44.3 µM | Cc1ccc(C(=O)/C=C/c2cc(C)n(-c3ccc([N+](=O)[O-])cc3)c2C)cc1 [Compound 13, (E)-3-(2,5-Dimethyl-1-(4-nitrophenyl)-1H-pyrrol-3-yl)-1-(p-tolyl)prop-2-en-1-one] | > 100% | melting point: 172 to 173 °C
 | Cc1cc(/C=C/C(=O)c2ccccc2)c(C)n1-c1ccc([N+](=O)[O-])cc1 [Compound 12, (E)-3-(2,5-Dimethyl-1-(4-nitrophenyl)-1H-pyrrol-3-yl)-1-phenylprop-2-en-1-one] | 84.7% | melting point: 169 to 174 °C
11.5 µM | Cc1cc(/C=C/C(=O)c2cc(Br)ccc2O)c(C)n1-c1ccccc1 [Compound 10a, (E)-1-(5-Bromo-2-hydroxyphenyl)-3-(2,5-dimethyl-1-phenyl-1H-pyrrol-3-yl)prop-2-en-1-one] | > 100% | 
10.6 µM | COc1ccc(C(=O)/C=C/c2cc(C)n(-c3ccc([N+](=O)[O-])cc3)c2C)c(OC)c1 [Compound 16, (E)-1-(2,4-Dimethoxyphenyl)-3-(2,5-dimethyl-1-(4-nitrophenyl)-1H-pyrrol-3-yl)prop-2-en-1-one] | > 100% | 
< 6 µM | Cc1cc(/C=C/C(=O)c2cc(Br)ccc2O)c(C)n1-c1ccc([N+](=O)[O-])cc1 [Compound 10h, (E)-1-(5-Bromo-2-hydroxyphenyl)-3-(2,5-dimethyl-1-(4-nitrophenyl)-1H-pyrrol-3-yl)prop-2-en-1-one] | > 100% | 
6.9 µM | Cc1cc(/C=C/C(=O)c2cc(Br)ccc2O)c(C)n1-c1ccc(F)cc1 [Compound 10b, (E)-1-(5-Bromo-2-hydroxyphenyl)-3-(1-(4-fluorophenyl)-2,5-dimethyl-1H-pyrrol-3-yl)prop-2-en-1-one] | > 100% | 
9.3 µM | Cc1cc(/C=C/C(=O)c2cc(Cl)ccc2O)c(C)n1-c1cccc(C(F)(F)F)c1 [Compound 18, (E)-1-(5-Chloro-2-hydroxyphenyl)-3-(2,5-dimethyl-1-(3-(trifluoromethyl)phenyl)-1H-pyrrol-3-yl)prop-2-en-1-one] | 79.9% | 
 | COc1ccc(-n2c(C)cc(/C=C/C(=O)c3cc(Br)ccc3O)c2C)cc1 [Compound 10j, (E)-1-(5-Bromo-2-hydroxyphenyl)-3-(1-(4-methoxyphenyl)-2,5-dimethyl-1H-pyrrol-3-yl)prop-2-en-1-one] | > 100% | T. b. brucei IC50 [2, 4]: no activity
10 µM | Cc1cc(/C=C/C(=O)c2cc(Br)ccc2O)c(C)n1-c1ccccc1C(F)(F)F [Compound 10g, (E)-1-(5-Bromo-2-hydroxyphenyl)-3-(2,5-dimethyl-1-(2-(trifluoromethyl)phenyl)-1H-pyrrol-3-yl)prop-2-en-1-one] | > 100% | 
4.09 µM | Cc1cc(/C=C/C(=O)c2cc(Br)ccc2O)c(C)n1-c1cccc(C(F)(F)F)c1 [Compound 10e, (E)-1-(5-Bromo-2-hydroxyphenyl)-3-(2,5-dimethyl-1-(3-(trifluoromethyl)phenyl)-1H-pyrrol-3-yl)prop-2-en-1-one] | > 100% | 
40 µM | Cc1cc(/C=C/C(=O)c2cc(Br)ccc2O)c(C)n1-c1ccc(Cl)cc1 [Compound 10c, (E)-1-(5-Bromo-2-hydroxyphenyl)-3-(1-(4-chlorophenyl)-2,5-dimethyl-1H-pyrrol-3-yl)prop-2-en-1-one] | > 100% | 
 | Cc1cc(/C=C/C(=O)c2cc(Br)ccc2O)c(C)[nH]1 [Compound 10k, (E)-1-(5-Bromo-2-hydroxyphenyl)-3-(2,5-dimethyl-1H-pyrrol-3-yl)prop-2-en-1-one] | > 100% | T. b. brucei IC50 [2, 4]: complete loss of activity
11.4 µM | Cc1cc(/C=C/C(=O)c2cc(Br)ccc2O)c(C)n1-c1ccc(C(F)(F)F)cc1 [Compound 10f, (E)-1-(5-Bromo-2-hydroxyphenyl)-3-(2,5-dimethyl-1-(4-(trifluoromethyl)phenyl)-1H-pyrrol-3-yl)prop-2-en-1-one] | > 100% | 
 | N=C(N)c1ccc(OCCCCCOc2ccc(C(=N)N)cc2)cc1 [PMD, Pentamidine, reference compound] |  | IC50 ([2]; read-out: T. b. brucei IC50 (positive control drug)): 0.00068 µM
10.5 µM | Cc1cc(/C=C/C(=O)c2cc(Br)ccc2O)c(C)n1-c1ccc(Br)cc1 [Compound 10d, (E)-1-(5-Bromo-2-hydroxyphenyl)-3-(1-(4-bromophenyl)-2,5-dimethyl-1H-pyrrol-3-yl)prop-2-en-1-one] | > 100% | 
11.7 µM | Cc1cc(/C=C/C(=O)c2cc(Cl)ccc2O)c(C)n1-c1cccc([N+](=O)[O-])c1 [Compound 19, (E)-1-(5-Chloro-2-hydroxyphenyl)-3-(2,5-dimethyl-1-(3-nitrophenyl)-1H-pyrrol-3-yl)prop-2-en-1-one] | 81.2% | 
 | O=C(/C=C/c1c[nH]cn1)c1cc(Br)ccc1O [Compound 11a, (E)-1-(5-Bromo-2-hydroxyphenyl)-3-(1H-imidazol-4-yl)prop-2-en-1-one] | 78.1% | T. b. brucei IC50 [2, 4]: no activity
< 10 µM | Cc1cc(/C=C/C(=O)c2cc(Br)ccc2O)c(C)n1-c1cccc([N+](=O)[O-])c1 [Compound 10i, (E)-1-(5-bromo-2-hydroxyphenyl)-3-(2,5-dimethyl-1-(3-nitrophenyl)-1H-pyrrol-3-yl)prop-2-en-1-one] | 51.2% | 
11.5 µM | Cc1cc(/C=C/C(=O)c2cc(Br)ccc2O)c(C)n1C1CCCCC1 [Compound 10l, (E)-1-(5-Bromo-2-hydroxyphenyl)-3-(1-cyclohexyl-2,5-dimethyl-1H-pyrrol-3-yl)prop-2-en-1-one] | 99.2% | 
36.5 µM | Cc1cc(/C=C/C(=O)c2ccc(F)cc2)c(C)n1-c1ccc([N+](=O)[O-])cc1 [Compound 14, (E)-3-(2,5-Dimethyl-1-(4-nitrophenyl)-1H-pyrrol-3-yl)-1-(4-fluorophenyl)prop-2-en-1-one] | 99.4% | melting point: 160 to 164 °C
